Results on four compounds are retold here after publication PMC6218659, “Structures of DPAGT1 Explain Glycosylation Disease Mechanisms and Advance TB Antibiotic Design” (Cell, 2018).

Converted amounts (≈) assume the structure as drawn. Read-outs that look alike come from different tables or passages of the source.

The term IC50 denotes the point on the concentration scale where inhibition reaches its midpoint. A higher IC50 goes with weaker potency in that assay. As a reminder, the MBC is the smallest concentration meeting the test's criterion for killing. Read a low MBC as more potent killing.

Data set [1] has as its system B. subtilis EC1524. Description: Micro-broth dilution and drop plate antimicrobial susceptibility test. It counts as cell-based, Bacillus subtilis. As for the experimental part:
(§1) In a sterile 96-well plate, serial dilutions were made with the test substance to final volume of 50 μl. Inoculum was then prepared in Mueller-Hinton broth to 0.5 McFarland and diluted before adding 50 μl to the well to make ∼1x10^5 CFU/ml. The culture plate was incubated at 35 °C for 20-24 hrs. A positive growth control and sterility wells were also prepared along with the culture wells. Absorbance at OD600 was taken using BMG Labtech SPECTROstar Omega spectrophotometer. MIC is determined by the lowest concentration without growth. IC50 is determined from plotting a dose-response curve, see Data Analysis below. To determine the MBC, using a multi-channel pipette, 1 μl of culture broth was taken from the same 96-well microdilution growth plate and carefully inoculated on surface of MH agar plate. The plate is then incubated for additional 20 hrs. at 35 °C. The MBC value is the lowest concentration without observed growth on the agar.
On the technique in general: In broth dilution the organism is exposed to a series of concentrations in liquid medium.

The test system of data set [2] is B. cereus ATCC11778. The description is as above. The data set is classed as cell-based, Bacillus cereus. As for the experimental part:
as §1

In data set [3] the test system is E. coli ATCC25922. The data set is described as above. The data set is classed as cell-based. The following applies: Escherichia coli. As for the experimental part:
as §1

Data set [4] relates to P. aeruginosa ATCC27853. The description is as above. It counts as cell-based. The following applies: Pseudomonas aeruginosa. Here is the method: as §1
The test system of data set [5] is S. aureus ATCC29219. Described as above. It counts as cell-based. The following applies: Staphylococcus aureus. As for the experimental part:
as §1

In data set [6] the test system is Mtb H37Rv ATCC27294. The experiment in a line: Minimum inhibitory concentrations testing against Mtb. It counts as cell-based, Mycobacterium tuberculosis. The following applies: for MIC: Mycobacterium tuberculosis.
Data set [7] deals with HEK293 cells. Description: Cell proliferation assay (MTS). The data set is classed as cell-based, human. The following applies: for LD50 values, HEK293: MTS cell proliferation assay, 24 hrs, highest concentration 400 µg mL-1. As for the experimental part: (§2) In sterile 96-well plate, each well was seeded with ∼1x10^5 cells. The cells are then grown confluent overnight in 100 μl DMEM with 10% FBS. The medium is replenished with DMEM with 2% FBS and added vehicle control or test substance the next day. For test substance in methanol, stock was added to 25 μl of DMEM with 2% FBS or PBS and placed in the laminar flow hood to let the methanol evaporate (about 1-3 hrs). Once the methanol has evaporated, DMEM with 2% FBS was added to final volume of 100 μl of desired test concentration. […] Cells are grown for additional 24 hrs. The cell viability was determined by using Promega CellTiter 96^© AQueous One Solution Cell Proliferation Assay (3-(4,5-dimethylthiazol-2-yl)-5-(3-carboxymethoxyphenyl)-2-(4-sulfophenyl)-2H-tetrazolium, inner salt; MTS) System following the manufacture protocol.
On the technique in general: Formazan colour is commonly taken as a measure of viable cells.

The test system of data set [8] is HepG2 cells. The experiment in a line: Cell proliferation assay (MTS). It counts as cell-based, human. The following applies: for LD50 values, HepG2: MTS cell proliferation assay, 24 hrs, highest concentration 400 µg mL-1. Here is the method:
as §2

In data set [9] the test system is Raji cells. Description: Cell proliferation assay (MTS). The data set is classed as cell-based, human. The following applies: 24 hrs. Here is the method:
as §2

Where [10] appears, read: minimal lethal dose / MIC, 800 μg mL-1 used for >400.
Setting [11] is: serial 2-fold dilutions (Table S6).
Setting [12] is: 168 h, Mtb H37Rv, minimal growth medium, read-out: 1-week MIC in GAST/Fe.
Where [13] appears, read: 168 h, Mtb H37Rv, rich 7H9-based growth medium, read-out: 1-week MIC in 7H9/ADC/Tw.

Regarding `CCCCCCCCCCCC(=O)N[C@H]1[C@H](O[C@H]2O[C@H](CO)[C@@H](O)[C@H](O)[C@H]2NC(=O)CCCCCCCCCCC)O[C@H](C[C@@H](O)[C@H]2O[C@@H](n3ccc(=O)[nH]c3=O)[C@H](O)[C@@H]2O)[C@H](O)[C@@H]1O` [TUN-12,12, Di-N-dodecanoyl-tunicamycin], the 50% inhibitory concentration (IC50) in data set [1] (Bacillus subtilis, EC1524) stood at 58.9 µg/mL (≈ 63.3 µM); in data set [2] (Bacillus cereus, ATCC11778), 1.4 ± 0.47 µg/mL (≈ 1.5 µM); in [3] it was 182 µg/mL (≈ 195 µM); in data set [4] it was 81.7 µg/mL (≈ 87.8 µM); in data set [5], 61.9 µg/mL (≈ 66.5 µM). In addition, the MBC in [1] (Bacillus subtilis, EC1524) is more than 200 µg/mL; in data set [2] (Bacillus cereus, ATCC11778), more than 200 µg/mL; in data set [3], more than 400 µg/mL; in data set [4], more than 400 µg/mL; in data set [5] it was more than 400 µg/mL. The MIC turned out to be 83 ± 29 µg/mL (≈ 89.1 µM) in data set [1] (Bacillus subtilis, EC1524); 100 µg/mL (≈ 107 µM) in data set [1] (Bacillus subtilis, EC1524, read-out: Minimal Inhibitory Concentration, B. subtilis EC1524); 42 ± 14 µg/mL (≈ 45.1 µM) in [2] (Bacillus cereus, ATCC11778); 50 µg/mL (≈ 53.7 µM) in data set [2] (Bacillus cereus, ATCC 11778 / NRRL11778, read-out: Minimal Inhibitory Concentration, B. cereus NRRL 11778); 330 ± 120 µg/mL (≈ 354 µM) in [3]; 170 ± 6 µg/mL (≈ 183 µM) in [4]. In addition, the MIC turned out to be 170 ± 60 µg/mL (≈ 183 µM) in data set [5]; 18.7 ± 5.4 µg/mL in data set [6] (168 h, read-out: 1-week MIC in 7H9/ADC/Tw); 6.9 ± 6.2 µg/mL in data set [6] (168 h, read-out: 1-week MIC in GAST/Fe); 18.7 µg/mL in data set [6] (168 h, read-out: Minimal Inhibitory Concentration, Mtb H37RV a); 6.9 µg/mL in [6] (168 h, read-out: Minimal Inhibitory Concentration, Mtb H37RV b). For the same compound, in data set [1] (setting [10]), the “Relative Therapeutic Index (RTI), B. subtilis EC1524” value is given as 8. For the same compound, the “Relative Therapeutic Index (RTI), B. cereus NRRL 11778” value in [2] (setting [10]) is 16. Also, in [6] (minimal lethal dose / MIC, 7H9/ADC/Tw, 800 μg mL-1 used for >400), the “Relative Therapeutic Index (RTI), Mtb H37RV a” value worked out at 43. Further, in [6] (minimal lethal dose / MIC, GAST/Fe, 800 μg mL-1 used for >400), the “Relative Therapeutic Index (RTI), Mtb H37RV b” value came to 116. In addition, in [7], the “LD50 values, HEK293” value is “N/A (N/A = not available. No or low cytotoxicity observed at highest, saturating concentration tested (400 µg mL-1))”. The “Minimal Lethal Dose, HEK 293” value in [7] (setting [11]) was more than 400 µg/mL. The “LD50 values, HepG2” value in data set [8] is given as “N/A (N/A = not available. No or low cytotoxicity observed at highest, saturating concentration tested (400 µg mL-1))”. The “Minimal Lethal Dose, HepG2” value in [8] (setting [11]) was more than 400 µg/mL. For the same compound, the “LD50 values, Raji” value in [9] was 81.29 ± 30.20 µg/mL.
As to `CC(=O)N[C@H]1[C@H](O[C@H]2O[C@H](CO)[C@@H](O)[C@H](O)[C@H]2NC(C)=O)O[C@H](C[C@@H](O)[C@H]2O[C@@H](n3ccc(=O)[nH]c3=O)[C@H](O)[C@@H]2O)[C@H](O)[C@@H]1O` [TUN-Ac,Ac, α-D-N-acetylglucosamine-(1”-11')-N-acetyl tunicamyl uracil], the MIC was 21.3 ± 1.8 µg/mL in [6] (setting [12]) and not below 60 µg/mL in data set [6] (setting [13]). Further, the “LD50 values, HEK293” value in data set [7] is given as “N/A (N/A = not available. No or low cytotoxicity observed at highest, saturating concentration tested (400 µg mL-1))”. In addition, in [8], the “LD50 values, HepG2” value is “N/A (N/A = not available. No or low cytotoxicity observed at highest, saturating concentration tested (400 µg mL-1))”. Further, in data set [9], the “LD50 values, Raji” value stood at 212.30 ± 51.48 µg/mL.
`CC(C)(C)OC(=O)N[C@H]1[C@H](O[C@H]2O[C@H](CO)[C@@H](O)[C@H](O)[C@H]2NC(=O)OC(C)(C)C)O[C@H](C[C@@H](O)[C@H]2O[C@@H](n3ccc(=O)[nH]c3=O)[C@H](O)[C@@H]2O)[C@H](O)[C@@H]1O` [TUN-Boc,Boc, 10',2"-Di-N-Boc-α-D-glucosamine-(1”-11')-tunicamyl uracil]: the MIC in [6] (setting [12]) and in [6] (setting [13]) was more than 60 µg/mL throughout. Also, the “LD50 values, HEK293” value in data set [7] was “N/A (N/A = not available. No or low cytotoxicity observed at highest, saturating concentration tested (400 µg mL-1))”. The “LD50 values, HepG2” value in data set [8] was “N/A (N/A = not available. No or low cytotoxicity observed at highest, saturating concentration tested (400 µg mL-1))”. The “LD50 values, Raji” value in [9] came out at 608.9 ± 394.9 µg/mL.
Consider `C[C@@H](O)[C@H]1C(=O)N2C(C(=O)O)=C(S[C@@H]3CN[C@H](C(=O)N(C)C)C3)[C@H](C)[C@H]12` [meropenem, reference compound], for which the MIC in [6] (Mtb H37Rv, with clavulanate at a fixed concentration of 100 μM, read-out: MIC concentration for control) was found to be 2 µM.
